This is an account of results in patent US5874472A, “Aminoacid derivatives as no synthase inhibitors” (Glaxo Wellcome Inc., priority 1993, dated 1999).

In one experiment the target is T1, inducible human NOS (Homo sapiens, UniProt P35228).
T1 construct: Purification of NOS cytokine-induced human colorectal adenocarcinoma DLD-1 cells; host or cells: DLD-1 cells induced with interferon-gamma, interleukin-6, tumor necrosis factor and interleukin-1beta; 2',5' ADP Sepharose purified
Kind of experiment: Inhibition of inducible human NOS (citrulline formation), enzyme from cytokine-induced DLD-1 cells. The experiment is classed as biochemical. The conditions noted are these: NOS from cytokine-induced DLD-1 cells; 1 μM L-[14C] arginine; pH 7.4; 10 μM FAD, no calmodulin/CaCl2. The method, then:
(§1) NOS was assayed for the formation of citrulline following the procedure of Schmidt et al (PNAS 88 365-369, 1991) with these modifications: 20 mM Hepes, pH 7.4, 10 μg/ml calmodulin, 2.5 mM CaCl2 2.5 mM DTT, 125 μM NADPH 10 μM H4 Biopterin, 0.5 mg/ml BSA, and 1 μM L-[^14 C] arginine (New England Nuclear). Linearity of NOS-catalyzed rate was confirmed prior to kinetic studies that used single time point determination of rate.
Purification of NOS cytokine-induced human colorectal adenocarcinoma DLD-1 cells.
DLD-1 (ATCC No. CCL 221) were grown at 37° C., 5% CO2 in RPMI 1640 medium supplemented with L- glutamin, penicillin, streptomycin, and 10% heat-inactivated fetal bovine serum. Cells were grown to confluency and then the following cocktail of cytokines were added: 100 units/ml interferon-gamma, 200 units/ml interleukin-6, 10 ng/ml tumor necrosis factor, and 0.5 ng/ml interieukin-1β. At 10-24 hr post-induction, cells were harvested by scraping and washed with phosphate-buffered saline. Pelleted cells were stored at -70° C. Purification of the induced NOS was performed at 4° C. Crude extract was prepared by three cycles of freeze/thawing cells in TDGB (20 mM tris pH 7.5, 10% glycerol, 1 mM DTT, 2 μM tetrahydrobiopterin). Extract was applied directly onto a column of 2',5' ADP sepharse (Pharmacia). Resin was sequentially washed with TDGB, 0.5 M NaCl in TDGB, TDGB. NOS was eluted with 2 mM NADPH in TDGB. BSA was immediately added to give a final concentration of 1 mg/ml. NOS could be quick frozen and stored at -70° C. without loss in activity for at least 2 months.
Assay for inducible human NOs.
The formation of citrulline was assayed as described above except that 10 μM FAD was included and calmodulin and CaCl2 were excluded from the assay mix.

Another experiment deals with T2, human placental NOS (Homo sapiens, UniProt P29474).
T2 construct: Purification of NOS from human placenta; from tissue; host or cells: fresh human placenta, amnion and chorion removed; ammonium sulfate and 2',5' ADP agarose purified
Kind of experiment: Inhibition of human placental NOS (citrulline formation). Conditions: 1 μM L-[14C] arginine; pH 7.4; calmodulin, CaCl2. The experiment is classed as biochemical. The method, then:
It is noted that the NO synthase isolated from human placenta most probably represents the endothelial constitutive isoenzyme.
Purification of NOS from human placenta.
Amion and chorion were removed from fresh placenta, which was then rinsed with 0.9% NaCl. The tissue was homogenized in a Waring blender in 3 volumes of HEDS buffer (20 mM Hepes pH 7.8, 0.1 mM EDTA, 5 mM DTT, 0.2M sucrose) plus 0.1 mM PMSF.
The homogenate was filtered through cheesecloth and then centrifuged at 1000 g for 20 min. The supernatant was recentrifuged at 27500 g for 30 min. Solid ammonium sulfate was added to the supernatant to give 32% saturation. Precipitated protein was pelleted at 25,000 g and then redissolved in a minimal volume of HEDS buffer plus 0.1 mM PMSF, 10 μg/ml leupeptin and soybean trypsin inhibitor, and 1 μg/ml pepstatin. The redissolved pellet was centrigued at 15000 g for 10 min. To the supernatant was added 1/20 volume of 2',5' ADP agarose resin (Sigma), and the slurry was mixed slowly overnight. In morning, slurry was packed into a column. The resin was sequentially washed with HEDS, 0.5M NaCl in HEDS, HEDS, and then NOS was eluted with 10 mM NADPH in HEDS. The enzyme could be concentrated by ultrafiltration and quick frozen and stored at -70° C. without loss in activity for at least 6 months.
Assay for human placental NOS
as §1

The next experiment has as its target T3, human brain NOS (Homo sapiens, UniProt P29475).
T3 construct: Purification of NOS from human brain; from tissue; host or cells: frozen human brain; ammonium sulfate, 2',5' ADP-agarose, calmodulin-agarose
Kind of experiment: Inhibition of human brain NOS (citrulline formation). Conditions: Schmidt et al. 1991 procedure, 10 μM tetrahydrobiopterin included. The experiment is classed as biochemical. As for the experimental part: Purification of NOS from human brain
Human brain NOS was prepared using variations of the procedures of Schmidt et al. (PNAS 88 365-369, 1991), Mayer et al. (Fed. Eur. Biochem. Soc. 288 187-191, 1991), and Bredt and Snyder, (PNAS 87 682-685, 1990). Briefly, frozen human brain (1050 gm) was homogenized in cold buffer A (50 mM HEPES, pH 7.5 (pH at RT) and 0.5 mM EDTA, 10 mM DTT, 3.6 L total volume) with a polytron. The mixture was centrifuged at 13,000 g for 1 hour and the supernatant was removed (about 2050 ml). To the supernatant, solid aimmonium sulfate (365 gm, about 30% of saturation) was added and stirred slowly for a total of 30 minutes. The precipitate was pelleted at 13,000 g for 30 minutes and the pellet was resuspended in ~400 mls of buffer A with 4 μM tetrahydrobiopterin, 1 μM FAD (Sigma), 1 μM FMN (Sigma). The solution was centrifuged at 41,000 g for 60 minutes. The supernatant was removed, frozen by pouring into liquid nitrogen, and stored overnight at -70° C. The mixture was thawed and passed through a 2',5' ADP-agarose column (0.4 g swelled in buffer A) at 4 ml/min. The column was washed with 100 ml buffer A, 200 ml buffer A with 500 mM NaCl, 100 ml Buffer A, then 30 ml buffer A with 5 mM NADPH. To the enzyme eluted from the column was added glycerol to 15%, CaCl2 to 1 mM, tetrahydrobiopterin to 10 μM, tween to 0.1% and FAD, FMN to 1 μM each. The enzyme was then passed through a 1 ml calmodulin-agarose column which had been equilibrated in Buffer A, 15% glycerol and 1 mM CaCl2. The column was washed with 15 ml Buffer A, 15% glycerol and 1 mM CaCl2, 15 ml of Buffer A, 15% glycerol and 5 mM EDTA, and then enzyme activity was eluted with 3 ml of Buffer A, 15% glycerol and 5 mM EDTA, 1 M NaCl. To the enzyme was added tetrahydrobiopterin to 10 μM, FAD and FMN to 1 μM, and tween to 0.1%. This solution was concentrated by centriprep-30 to a volume of approximately 500 μl. Human NOS was prepared completely analogously except the calmodulin-agarose column was not used. Enzyme activity was determined as described by Schmidt et al. 1991, except that 10 μM tetrahydrobiopterin was included in the assay.

For experiment [1] the following is noted: phenylalanine-loaded rat; Chemical Abstracts vol. 89, 191755v; cited from earlier work.
Another experiment relates to NO synthase. The conditions noted are these: background statement; cited from earlier work.

As usually defined, the Ki is the dissociation constant of the complex between target and ligand, obtained from inhibition or displacement. Low values mean tighter binding, high ones weaker binding. On to `CCSC(=N)NCc1ccc(CC(N)C(=O)O)s1` (racemic) [Compound 23, 3-(5-((S-ethylisothioureido)methyl)-2-thienyl)-DL-alanine], for which the Ki on inducible human NOS, on human placental NOS and at human brain NOS was not above 10 µM in each case.
Turning to `CSC(=N)NCc1ccc(C(N)C(=O)O)s1` (racemic) [Compound 24], the Ki at inducible human NOS, on human placental NOS and on human brain NOS was more than 50 µM throughout.
Consider `CCSC(=N)NCc1ccc(C(N)C(=O)O)s1` (racemic) [Compound 25], for which the Ki on inducible human NOS is not above 10 µM; on human placental NOS, not above 50 µM; on human brain NOS, not above 10 µM.
With `CSC(=N)Nc1cccc(CC(N)C(=O)O)c1` (racemic) [Compound 26, 3-(S-methylisothioureido)-DL-phenylalanine], the Ki is not above 50 µM at inducible human NOS, not above 10 µM on human placental NOS and not above 10 µM at human brain NOS.
`CCSC(=N)Nc1cccc(CC(N)C(=O)O)c1` (racemic) [Compound 27, 3-(S-ethylisothioureido)-DL-phenylalanine]: the inhibitory constant (Ki) is not above 10 µM at inducible human NOS, not above 10 µM at human placental NOS and not above 1 µM at human brain NOS.
Turning to `N=C(N)Nc1ccc(C[C@H](N)C(=O)O)cc1` [4-guanidino phenylalanine], in experiment [1], the “renal excretion of cystine” value is “to some extent” and the “renal excretion of lysine” value is “increased”.
On to `N=C(N)NCc1ccc(C[C@H](N)C(=O)O)cc1` [4-guanidinomethylphenylalanine], for which, in experiment [1], the “renal excretion of cystine” value is reported as “to some extent” and the “renal excretion of lysine” value is “increased”.
Consider `NC(=S)Nc1ccc(C[C@H](N)C(=O)O)cc1` [Compound 28, 4-thioureido-L-phenylalanine], for which the inhibitory constant (Ki) at inducible human NOS, at human placental NOS and on human brain NOS was more than 50 µM each time.
Regarding `CSC(=N)Nc1ccc(C[C@H](N)C(=O)O)cc1` [Compound 29, 4-(S-methylisothioureido)-L-phenylalanine], the Ki at inducible human NOS, at human placental NOS and on human brain NOS was more than 50 µM throughout.
As for `CCSC(=N)Nc1ccc(C[C@H](N)C(=O)O)cc1` [Compound 30, 4-(S-ethylisothioureido)-L-phenylalanine], the inhibitory constant (Ki) at inducible human NOS was not above 10 µM; on human placental NOS, not above 0.5 µM; on human brain NOS, not above 0.5 µM.
Regarding `CN=C(N)NCCC[C@H](N)C(=O)O` [L-NMMA, L-N-monomethyl-arginine], in the experiment with NO synthase, the “inhibition of the synthesis of NO from L-arginine” value is on record as “can be inhibited”; the “selectivity between constitutive and inducible NO synthase” value is “non-selective”.
Consider nitroarginine, for which the “selectivity between constitutive and inducible NO synthase” value with NO synthase is recorded as “non-selective”.
